Test results from patent US11975105B2 (EMPROS PHARMA AB, priority 2014, dated 2024).
Read-outs that look alike come from different tables or passages of the source.

Experiments:
[1] = pH dependent degradation when solubility from a powder was investigated at 37° C.; format: physicochemical; settings: FIG. 1A-B
[2] = cited from earlier work
[3] = cited from earlier work; for fraction of the dose absorbed: oral administration
[4] = cited from earlier work; for additional weight loss relative to placebo: at one year
[5] = cited from earlier work; for frequency of side effects, comparative: human, in vivo

Q: Which pH dependent degradation [1] does the source give for `CCCCCCCCCCCC(CC1OC(=O)[C@H]1CCCCCC)OC(=O)C(CC(C)C)NC=O` (stereo in doubt) [orlistat, (S)—((S)-1-((2S,3S)-3-Hexyl-4-oxooxetan-2-yl)tridecan-2-yl) 2-formamido-4-methylpentanoate] here?
A: A similar tendency

Q: What about the “log P” value [2] of the same compound?
A: 8.5

Q: What about the solubility in water [2] of the same compound?
A: practically insoluble in water

Q: And the “log P” value ([2]; listed as Orlistat)?
A: 8.4

Q: And the plasma exposure ([3]; conventional oral dosage form)?
A: < 5 ng/mL

Q: And the “fraction of the dose absorbed” value [3]?
A: < 3%

Q: What about the “additional weight loss relative to placebo” value [4] of the same compound?
A: ~3%

Q: And the relative weight loss ([4]; best case scenario, placebo 6%)?
A: 10%

Q: And the “patients complaining about GI side-effects (diarrhea, oily spottings, fecal urgency)” value ([5]; clinical trials)?
A: ≥ 25%

Q: Which “frequency of side effects, comparative” value [5] does the source give for `CCCCCCCCCCCCCCCCOc1nc2ccc(C)cc2c(=O)o1` [cetilistat] here?
A: much lower frequency of side effects

Q: What does the source list for `C[C@H]1CNCCc2ccc(Cl)cc21` [lorcaserin]?
A: additional weight loss relative to placebo [4]: ~3%; decrease of body weight more than placebo ([4]; human, in vivo): about 3.2 kg; decrease of body weight more than placebo, of initial body weight ([4]; human, in vivo): about 3.2%

Q: For `OCCN1C[C@H](O)[C@@H](O)[C@H](O)[C@H]1CO` [miglitol], which “fraction of the dose absorbed” value [3] is on record?
A: 100%

Q: Which “fraction of the dose absorbed” value [3] does the source give for `OCC(CO)N[C@H]1C[C@](O)(CO)[C@@H](O)[C@H](O)[C@H]1O` [voglibose] here?
A: negligibly absorbed

Q: And the “frequency of side effects, comparative” value [5]?
A: lower frequency of GI side effects compared to acarbose
